Read-outs that look alike come from different tables or passages of the source. No end group written: not given here.
Assays:
Test in all cases: biochemical
Assay type in all cases: binding
HLA-DR DRB1*0101 (DR1) = HLA-DR DRB1*0101 (DR1) (Homo sapiens, UniProt P01903+P01911, A100R/D57E/F55L/F60I/F76Y/I96L/L162R/M171V/P40L/Q125E/R42F/V115G/Y59C)
HLA-DR DRB1*0301 (DR3) = HLA-DR DRB1*0301 (DR3) (Homo sapiens, UniProt P01903+P01911, A100K/A102G/A103R/A169T/F55Y/I96L/K41T/L162R/M171V/P40S/Q125H/Q178H/Q39Y/R42S/S66N/T106N/T262R/W38E/Y61H)
HLA-DR DRB1*0401 (DR4) = HLA-DR DRB1*0401 (DR4) (Homo sapiens, UniProt P01903+P01911, A100K/A169T/F76Y/I96L/K127E/L162R/M171V/N62H/P40V/Q125Y/R42H/S133A/S149N/S66Y/V115G/V209L/W38E)
HLA-DR DRB1*0405 (DR4) = HLA-DR DRB1*0405 (DR4) (Homo sapiens, UniProt P01903+P01911, A100R/A169T/D86S/F76Y/I96L/K127E/L162R/M171V/N62H/P40V/Q125Y/R42H/S133A/S149N/S66Y/V115G/V209L/W38E)
HLA-DR DRB1*0701 (DR7) = HLA-DR DRB1*0701 (DR7) (Homo sapiens, UniProt P01903+P01911, A100R/A102G/A103Q/D57E/D86V/E43K/F76Y/K127E/L162R/M171V/P40G/Q125H/Q99D/R33Q/R42Y/R54Q/S133A/S66F/T210M/V115G/Y107V/Y59L/Y89S)
HLA-DR DRB1*0901 (DR9) = HLA-DR DRB1*0901 (DR9) (Homo sapiens, UniProt P01903+P01911, A100R/A103E/D57H/D86V/F55Y/F60I/F76Y/I96F/K127E/L162R/M171V/P40D/Q125H/Q99R/R33Q/R42F/S133A/S66N/T210M/V115G/W38K/Y107V/Y59G/Y89S); details: DRB1 *0901
HLA-DR DRB1*1101 (DR11) = HLA-DR DRB1*1101 (DR11) (Homo sapiens, UniProt P01903+P01911, A100R/A169T/A87E/I96F/K41T/L162R/M171V/P40S/Q125H/Q178H/Q39Y/Q99D/R42S/S66Y/T262R/V115G/W38E)
HLA-DR DRB1*1302 (DR13) = HLA-DR DRB1*1302 (DR13) (Homo sapiens, UniProt P01903+P01911, A100E/A169T/K41T/L162R/M171V/P40S/Q125H/Q178H/Q39Y/Q99D/R42S/S66N/T262R/V115G/W38E/Y61H)
HLA-DR DRB1*1501 (DR15) = HLA-DR DRB1*1501 (DR15) (Homo sapiens, UniProt P01903+P01911)
HLA-DR DRB3*0101 (DR52) = HLA-DR DRB3*0101 (DR52) (Homo sapiens, UniProt P01903+P79483)
HLA-DR DRB4*0101 (DR53) = HLA-DR DRB4*0101 (DR53) (Homo sapiens, UniProt P01903+P13762, G164S)
HLA-DR DRB5*0101 (DR51) = HLA-DR DRB5*0101 (DR51) (Homo sapiens, UniProt P01903+Q30154)

Chain of HLA-DR DRB1*1101 (DR11) (P01903 26-254 limits assumed, other chains not shown): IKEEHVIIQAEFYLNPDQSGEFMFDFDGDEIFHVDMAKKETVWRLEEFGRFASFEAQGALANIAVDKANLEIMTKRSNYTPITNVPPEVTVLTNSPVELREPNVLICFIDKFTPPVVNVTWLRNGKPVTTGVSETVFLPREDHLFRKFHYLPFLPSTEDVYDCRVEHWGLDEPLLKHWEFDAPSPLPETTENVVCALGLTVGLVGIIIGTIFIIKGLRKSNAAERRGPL
Chain of HLA-DR DRB1*1302 (DR13) (P01903 26-254 limits assumed, other chains not shown): as above
Chain of HLA-DR DRB1*0301 (DR3) (P01903 26-254 limits assumed, other chains not shown): as above

Row | Compound | IC50 (HLA-DR DRB1*0101 (DR1); DRB1 *0101) [µM] | IC50 (HLA-DR DRB1*0301 (DR3)) [µM] | IC50 (HLA-DR DRB1*0401 (DR4); DRB1 *0401) [µM] | IC50 (HLA-DR DRB1*0405 (DR4); DRB1 *0405) [µM] | IC50 (HLA-DR DRB1*0701 (DR7); DRB1 *0701) [µM] | IC50 (HLA-DR DRB1*0901 (DR9)) [µM] | IC50 (HLA-DR DRB1*1101 (DR11); DRB1 *1101) [µM] | IC50 (HLA-DR DRB1*1302 (DR13); DRBI *1302) [µM] | IC50 (HLA-DR DRB1*1501 (DR15); DRBI *1501) [µM] | IC50 (HLA-DR DRB3*0101 (DR52)) [µM] | IC50 (HLA-DR DRB1*0405 (DR4)) [µM] | IC50 (HLA-DR DRB1*0701 (DR7)) [µM] | IC50 (HLA-DR DRB1*1101 (DR11)) [µM] | IC50 (HLA-DR DRB1*1302 (DR13)) [µM] | IC50 (HLA-DR DRB1*1501 (DR15)) [µM] | IC50 (HLA-DR DRB5*0101 (DR51)) [µM] | IC50 (HLA-DR DRB1*0401 (DR4)) [µM] | IC50 (HLA-DR DRB4*0101 (DR53)) [µM] | other results
1 | CC[C@H](C)[C@H](NC(=O)CNC(=O)[C@H](CC(C)C)NC(=O)[C@H](CC(C)C)NC(=O)[C@H](CCCNC(=N)N)NC(=O)[C@H](CO)NC(=O)[C@@H](NC(=O)[C@H](Cc1ccc(O)cc1)NC(=O)[C@@H]1CCCN1C(=O)[C@H](CO)NC(=O)CNC(=O)[C@@H](NC(=O)CN)C(C)C)C(C)C)C(=O)N[C@@H](CS)C(=O)N[C@@H](CC(C)C)C(=O)O | 0.019 | 168 | 1.57 | 4.16 | 0.19 | 2.61 | 0.696 | 0.955 | 0.046 | 149 |  |  |  |  |  |  |  |  | 
2 | APPRLITDSRVLERY | 10.1 | 0.015 | 6.68 | 7.77 | 0.629 | 8.39 | 2.75 | 0.092 |  | 0.71 |  |  |  |  |  |  |  |  | IC50 (HLA-DR DRB4*0101 (DR53); DRB4 *0101): 2.26 µM; IC50 (HLA-DR DRB5*0101 (DR51); DRB5 *0101): 0.698 µM
3 | ELVSEFSRMARDPQ | 0.201 |  | 0.12 | 15.1 | 21.3 | 91.6 | 4.57 | > 71.4 | 7.89 | 15.8 |  |  |  |  |  |  |  |  | IC50 (HLA-DR DRB4*0101 (DR53); DRB4 *0101): 0.97 µM
4 | EMLQNIFAIFRQDSS | 0.395 | 9.54 | 0.685 | 0.456 | 3.31 | 9.74 | 36.8 | 0.061 | 1.72 | 0.726 |  |  |  |  |  |  |  |  | IC50 (HLA-DR DRB4*0101 (DR53); DRB4 *0101): 0.164 µM; IC50 (HLA-DR DRB5*0101 (DR51); DRB5 *0101): 3.19 µM
5 | GAALGGAARALAHGV |  | 26.9 |  |  |  |  |  |  |  | > 71 | > 13 | 29.8 | 0.168 | 19.3 | 4.48 | 25.4 |  |  | 
6 | GAPLAGAARALAHGV |  | 2.98 |  |  |  |  |  |  |  | > 71 | > 13 | 8.18 | 0.0095 | 7.21 | 2.81 | 7.69 | 39.9 | 2.96 | 
7 | GAPLGAAARALAHGV |  |  |  |  |  |  |  |  |  | > 71 | > 13 | 6.49 | 0.036 | 15.1 | 3.92 | 4.5 |  | 16.5 | IC50 (HLA-DR DRB1*0101 (DR1)): 0.226 µM
8 | GAPLGGAAAALAHGV |  | 82.1 |  |  |  |  |  |  |  | > 51.1 | > 3.37 | 31.9 | 43.8 | 23.8 | 7.68 | 12.9 | 5.47 | 0.031 | 
9 | GAPLGGAARAAAHGV |  | 378 |  |  |  |  |  |  |  | > 51.1 | > 3.37 | 31.3 | 3.63 | > 23.5 | > 8.67 | 42.5 | 25.3 | 41.4 | 
10 | GAPLGGAARALAAGV |  | 23.3 |  |  |  |  |  |  |  | > 51.1 | > 3.37 | 7.42 | 0.045 | 23.2 | 5.71 | 8.35 | 11.3 | 3.87 | 
11 | GAPLGGAARALAHGV | 0.69 |  |  | > 13 |  |  | 0.024 | 8.74 | 1.61 | > 71 |  |  |  |  |  |  |  |  | IC50 (HLA-DR DRB5*0101 (DR51); DRB5 *0101): 12 µM
12 | GAPLGGAARLLAHGV |  | 23 |  |  |  |  |  |  |  | > 51.1 | > 3.37 | 57.5 | 0.08 | 29.4 | 0.631 |  | 15 | 2.55 | IC50 (HLA-DR DRB1*0101 (DR1)): 0.398 µM

From patent US20060079453A1, “Hla binding peptides and their uses” (priority 2002, published 2006)
